Results on one compound are retold here after patent US20260317308A1, “A SEQUENCE SELECTIVE DNA BINDING MOLECULE (SYNGRADER)” (ST. JUDE CHILDREN'S RESEARCH HOSPITAL, INC., priority 2023, published 2026).

The test system of one data set is TCF3-PBX1-HaloTag. Put plainly: P2RY10 luciferase reporter assay in HEK293T cells expressing Doxycycline-inducible TCF3-PBX1-HaloTag. In kind it is cell-based, human. On the procedure: Cells were transfected with P2RY10-Luciferase reporter plasmid DNA which contains the 282 bp P2RY10 promoter sequence cloned downstream of a minimal TATA box promoter. After 24 hours, the cells were treated with 0.70 and 1.0 μM PBX-SynTEF2 (SnTF2), SynTEF-PBX-DRG1 (DRG1), and SynTEF-PBX-DRG2 (DRG2). The SynTEF-PBX-DRG1 compound carries the Thalidomide ligand for recruitment of the Cerbelon E3-Ligase, and SynTEF-PBX-DRG2 has a VHL ligand for the recruitment of the VHL E3-Ligase. Doxycycline (DOX) was added at 0.1 ug/mL concentration to induce TCF3-PBX1-HaloTag expression, and 48 hours after DOX addition, NanoGlo Luciferase expression (Promega) was measured in the medium (Luciferase protein is secreted by the cells). Luciferase activity was calculated as Fold Change compared to “DMSO without DOX” control cells (purple bar), Error bars: Standard deviation. N>6 biological replicates.

For data set [1], the system named is NALM6 (N6) Acute Lymphoblastic Leukemia (ALL) B cells expressing TCF3-PBX1-HaloTag. Put plainly: Cell viability assay (CellTiterGlo) in NALM6 ALL cells with Doxycycline-inducible TCF3-PBX1-HaloTag, co-transfected with P2RY10 and CMV luciferase reporter plasmids. In kind it is cell-based. Conditions: for loss in cell viability: loaded on WT TR DNA-Aptamer, vs DMSO no DOX. On the procedure:
The N6-TCF3-PBX1-HaloTag cells were Nucleofected (Lonza) with P2RY10-Luciferase and CMV promoter Luciferase reporter plasmid DNAs. After 24 hours, cells were treated with either wildtype (WT) or Mutant (MT) Transferrin Receptor (TR) WGGWWW DNA-Aptamers pre-loaded with PBX-SynTEF-FL (SnTF-FL), SynTEF-PBX-DRG1 (DRG1), and SynTEF-PBX-DRG2 (DRG2). The WT and MT DNA-Aptamers contain WGGWWW tail duplex DNA sequences that bind the PBX-SynTEF payloads, but only WT DNA-Aptamers can bind to TR present on the cell surface of NALM6 ALL cells, resulting in TR-mediated cellular internalization of the polyamide compounds. The MT DNA-Aptamer, has a GG to AA dinucleotide substitution which prevents binding to the TR (*see Cheng et al, 2022). Thus, cells treated with the MT DNA-Aptamer-SynTEF complexes serve as negative controls, since without a functional Aptamer, it is unlikely that the polyamides are taken up by the NALM6 cells. Doxycycline (DOX) was added at 0.1 ug/mL concentration to induce TCF3-PBX1-HaloTag expression, and 48 hours after DOX addition, cell viability was measured using CellTiterGlo reagent (Promega) which detects ATP present only in live cells. CellTiterGlo activity was calculated as Fold Change compared to “DMSO no DOX” treated cells which had the highest cell viability (dark blue bars). Error bars: Standard deviation. N>6 biological replicates.
(In general: Cellular ATP, detected with luciferase, serves as a proxy for viable cell number.)

Molecules are shown by their SMILES.

With `CSCCC(NC(=O)C(Cc1c[nH]c2ccccc12)NC(=O)C1CCCN1C(=O)C(Cc1ccc(O)cc1)NC(=O)C(Cc1ccccc1)NC(C)=O)C(=O)NC(CCCCNC(=O)CCOCCOCCOCCOCCOc1cccc2c1C(=O)N(C1CCC(=O)NC1=O)C2=O)C(=O)NCC(=O)NCCOCCOCCOCCC(=O)NCCCN(C)CCCNC(=O)CCNC(=O)c1cc(NC(=O)c2cc(NC(=O)c3cc(NC(=O)c4cc(NC(=O)CCCNC(=O)c5cc(NC(=O)c6cc(NC(=O)c7nc(NC(=O)c8nccn8C)cn7C)cn6C)cn5C)cn4C)cn3C)cn2C)cn1C` (stereo not drawn) [SynTEF-PBX-DRG1], the “further increase of Luciferase expression above DMSO plus DOX baseline (in words)” value in the data set on TCF3-PBX1-HaloTag (both 0.70 and 1.0 μM, with DOX) is given as “fail to further increase Luciferase expression”. Moreover, the “activity of the oncogenic TCF3-PBX1 fusion in cell-based reporters (in words)” value with TCF3-PBX1-HaloTag (cell-based reporters) was “reduced activity”. The “toxicity to the cells (in words)” value in data set [1] (NALM6 cells, without DOX) is “toxic to the cells but only when internalized”. The “loss in cell viability” value was ~ 85% in data set [1] (with DOX 0.1 ug/mL, 48 h); 70-80% in data set [1] (without DOX, both P2RY10 and CMV nucleofected cells). Also, in data set [1] (with DOX, loaded on MT DNA-Aptamer (negative control)), the “cell viability compared to +DOX DMSO and +DOX SynTF-FL cells (in words)” value is recorded as “comparable viability”.
